Measurements from ChEMBL document CHEMBL1909046, “DrugMatrix in vitro pharmacology data”.

What was measured:
[1] = molecular target: T1, Alpha-2C adrenergic receptor (Homo sapiens, UniProt P18825); experiment: DRUGMATRIX: Adrenergic Alpha-2C radioligand binding (ligand: [3H] MK-912); assay type: cell membranes, Sf9, Membrane
T1 sequence (P18825 whole entry): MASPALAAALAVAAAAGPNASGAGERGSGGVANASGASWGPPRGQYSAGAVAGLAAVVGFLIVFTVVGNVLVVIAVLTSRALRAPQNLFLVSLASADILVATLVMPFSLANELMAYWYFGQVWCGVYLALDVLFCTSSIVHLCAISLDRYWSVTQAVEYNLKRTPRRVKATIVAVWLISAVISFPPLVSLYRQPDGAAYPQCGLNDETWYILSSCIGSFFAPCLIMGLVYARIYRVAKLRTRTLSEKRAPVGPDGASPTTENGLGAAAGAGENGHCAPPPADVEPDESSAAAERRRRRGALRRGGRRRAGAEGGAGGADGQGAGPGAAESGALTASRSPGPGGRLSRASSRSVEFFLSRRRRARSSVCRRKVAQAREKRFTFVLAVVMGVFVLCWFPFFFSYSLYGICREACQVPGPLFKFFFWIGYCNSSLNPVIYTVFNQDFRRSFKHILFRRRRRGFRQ

[2] = molecular target: 5-hydroxytryptamine receptor 4 (Cavia porcellus, UniProt O70528); assay type: cell membranes, Dunkin-Hartley, Striatum, Membrane; note: in other assays of this panel Not Active means under 50% inhibition at 10 µM
Cannabinoid receptor 1 = Cannabinoid receptor 1 (Homo sapiens, UniProt P21554); assay type: cell membranes, Chem-1, Membrane; settings: chem-1; note: in other assays of this panel Not Active means under 50% inhibition at 10 µM
[3] = molecular target: T2, Muscarinic acetylcholine receptor M5 (Homo sapiens, UniProt P08912); assay type: cell membranes, CHO-K1, Membrane; settings: cho-k1; note: in other assays of this panel Not Active means under 50% inhibition at 10 µM
T2 sequence (P08912 whole entry): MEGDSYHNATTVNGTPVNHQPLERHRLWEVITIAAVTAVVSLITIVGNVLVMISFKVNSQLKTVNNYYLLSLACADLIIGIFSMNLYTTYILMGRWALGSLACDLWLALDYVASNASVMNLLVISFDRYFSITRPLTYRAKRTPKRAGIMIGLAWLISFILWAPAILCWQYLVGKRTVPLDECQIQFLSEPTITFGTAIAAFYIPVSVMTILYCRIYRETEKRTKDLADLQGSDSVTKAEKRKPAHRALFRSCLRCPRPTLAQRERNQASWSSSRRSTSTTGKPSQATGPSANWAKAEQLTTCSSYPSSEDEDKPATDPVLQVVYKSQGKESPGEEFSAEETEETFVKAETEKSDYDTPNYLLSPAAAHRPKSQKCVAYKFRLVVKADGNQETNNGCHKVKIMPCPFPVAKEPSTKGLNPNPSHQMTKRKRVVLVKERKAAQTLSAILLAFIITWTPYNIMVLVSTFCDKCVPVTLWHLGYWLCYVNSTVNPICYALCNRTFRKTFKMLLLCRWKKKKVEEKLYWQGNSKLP

[4] = DRUGMATRIX: Phosphodiesterase PDE3 enzyme inhibition (substrate: [3H]cAMP + cAMP); assay type: tissue-based, Homo sapiens; settings: platelet; Not Active = under 50% inhibition at 10 µM

Sequence of 5-hydroxytryptamine receptor 4 (O70528 whole entry): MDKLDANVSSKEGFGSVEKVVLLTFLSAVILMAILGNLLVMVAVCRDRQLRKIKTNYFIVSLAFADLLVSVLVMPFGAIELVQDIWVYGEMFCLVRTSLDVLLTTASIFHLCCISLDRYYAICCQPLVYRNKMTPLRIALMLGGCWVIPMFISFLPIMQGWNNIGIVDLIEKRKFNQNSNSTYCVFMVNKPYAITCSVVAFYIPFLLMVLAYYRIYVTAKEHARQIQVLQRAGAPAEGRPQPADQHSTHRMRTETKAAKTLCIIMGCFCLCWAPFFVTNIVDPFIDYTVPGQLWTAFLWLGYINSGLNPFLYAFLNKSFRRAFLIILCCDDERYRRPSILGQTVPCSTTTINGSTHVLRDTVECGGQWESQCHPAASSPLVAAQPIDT
Sequence of Cannabinoid receptor 1 (P21554 whole entry): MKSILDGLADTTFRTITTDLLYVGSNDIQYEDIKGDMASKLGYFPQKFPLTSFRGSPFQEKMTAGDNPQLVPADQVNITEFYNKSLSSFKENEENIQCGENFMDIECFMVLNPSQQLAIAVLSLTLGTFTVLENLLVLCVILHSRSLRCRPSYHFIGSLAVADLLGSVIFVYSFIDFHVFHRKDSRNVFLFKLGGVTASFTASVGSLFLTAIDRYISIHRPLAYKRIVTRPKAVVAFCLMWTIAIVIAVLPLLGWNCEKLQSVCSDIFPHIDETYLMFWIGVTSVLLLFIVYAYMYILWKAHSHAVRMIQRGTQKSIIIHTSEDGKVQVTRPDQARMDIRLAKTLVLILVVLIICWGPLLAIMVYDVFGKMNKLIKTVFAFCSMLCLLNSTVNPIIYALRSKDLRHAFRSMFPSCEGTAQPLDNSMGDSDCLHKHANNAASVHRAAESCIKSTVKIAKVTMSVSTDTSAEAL

For O=C1c2ccccc2C(=O)C1c1ccccc1 [PHENINDIONE], the IC50 ([1]; sf9) was “Not Active”, the IC50 [2] was “Not Active” and the IC50 (Cannabinoid receptor 1) was “Not Active”. For the same compound, the IC50 [3] was “Not Active”, the IC50 [4] was “Not Active” and the Ki [4] was “Not Active”.

With CC(C)NCC(O)COc1ccc(CC(N)=O)cc1 (configuration not stated) [ATENOLOL] the IC50 ([1]; sf9) was “Not Active”, the IC50 [2] was “Not Active” and the IC50 (Cannabinoid receptor 1) was “Not Active”. The IC50 [3] was “Not Active”, the IC50 [4] was “Not Active” and the Ki [4] was “Not Active”.

In the case of OC[C@H]1O[C@@H]2O[C@H]3[C@H](O)[C@@H](O)[C@@H](O[C@H]4[C@H](O)[C@@H](O)[C@@H](O[C@H]5[C@H](O)[C@@H](O)[C@@H](O[C@H]6[C@H](O)[C@@H](O)[C@@H](O[C@H]7[C@H](O)[C@@H](O)[C@@H](O[C@H]8[C@H](O)[C@@H](O)[C@@H](O[C@H]1[C@H](O)[C@H]2O)O[C@@H]8CO)O[C@@H]7CO)O[C@@H]6CO)O[C@@H]5CO)O[C@@H]4CO)O[C@@H]3CO [BETADEX], the IC50 ([1]; sf9) is reported as “Not Active”, the IC50 [2] is reported as “Not Active” and the IC50 (Cannabinoid receptor 1) is reported as “Not Active”. For the same compound, the IC50 [3] was “Not Active”, the IC50 [4] was “Not Active” and the Ki [4] was “Not Active”.

In the case of COc1ccc(Cl)cc1C(=O)NCCc1ccc(S(=O)(=O)NC(=O)NC2CCCCC2)cc1 [GLYBURIDE], the IC50 ([1]; sf9) is reported as “Not Active”, the IC50 [2] is reported as “Not Active” and the IC50 (Cannabinoid receptor 1) is reported as “Not Active”. For the same compound, the IC50 [3] was “Not Active”, the IC50 [4] was “Not Active” and the Ki [4] was “Not Active”.

For CCN1CCN(C(=O)N[C@@H](C(=O)N[C@@H]2C(=O)N3[C@@H]2SC(C)(C)[C@@H]3C(=O)O)c2ccccc2)C(=O)C1=O [PIPERACILLIN], the IC50 ([1]; sf9) was “Not Active”, the IC50 [2] was “Not Active” and the IC50 (Cannabinoid receptor 1) was “Not Active”. The IC50 [3] was “Not Active”, the IC50 [4] was “Not Active” and the Ki [4] was “Not Active”.

For CCC1(c2ccccc2)C(=O)NC(=O)NC1=O [PHENOBARBITAL], the IC50 ([1]; sf9) was “Not Active”, the IC50 [2] was “Not Active” and the IC50 (Cannabinoid receptor 1) was “Not Active”. The IC50 [3] was “Not Active”, the IC50 [4] was “Not Active” and the Ki [4] was “Not Active”.

In the case of CC1(COc2ccc(CC3SC(=O)NC3=O)cc2)CCCCC1 (configuration not stated) [CIGLITAZONE], the IC50 ([1]; sf9) is reported as “Not Active”, the IC50 [2] is reported as “Not Active” and the IC50 (Cannabinoid receptor 1) is reported as “Not Active”. The IC50 [3] was “Not Active”, the IC50 [4] was “Not Active” and the Ki [4] was “Not Active”.

In the case of O=C(O)CNCP(=O)(O)O [GLYPHOSATE], the IC50 ([1]; sf9) is reported as “Not Active”, the IC50 [2] is reported as “Not Active” and the IC50 (Cannabinoid receptor 1) is reported as “Not Active”. For the same compound, the IC50 [3] was “Not Active”, the IC50 [4] was “Not Active” and the Ki [4] was “Not Active”.

For OC[C@H]1O[C@@H]2O[C@H]3[C@H](O)[C@@H](O)[C@@H](O[C@H]4[C@H](O)[C@@H](O)[C@@H](O[C@H]5[C@H](O)[C@@H](O)[C@@H](O[C@H]6[C@H](O)[C@@H](O)[C@@H](O[C@H]7[C@H](O)[C@@H](O)[C@@H](O[C@H]1[C@H](O)[C@H]2O)O[C@@H]7CO)O[C@@H]6CO)O[C@@H]5CO)O[C@@H]4CO)O[C@@H]3CO [ALFADEX], the IC50 ([1]; sf9) was “Not Active”, the IC50 [2] was “Not Active” and the IC50 (Cannabinoid receptor 1) was “Not Active”. For the same compound, the IC50 [3] was “Not Active”, the IC50 [4] was “Not Active” and the Ki [4] was “Not Active”.

In the case of Nc1nc(F)nc2c1ncn2[C@@H]1O[C@H](CO)[C@@H](O)[C@@H]1O [FLUDARABINE], the IC50 ([1]; sf9) is reported as “Not Active”, the IC50 [2] is reported as “Not Active” and the IC50 (Cannabinoid receptor 1) is reported as “Not Active”. For the same compound, the IC50 [3] was “Not Active”, the IC50 [4] was “Not Active” and the Ki [4] was “Not Active”.

For O=C(O)CO [GLYCOLIC ACID], the IC50 ([1]; sf9) was “Not Active”, the IC50 [2] was “Not Active” and the IC50 (Cannabinoid receptor 1) was “Not Active”. For the same compound, the IC50 [3] was “Not Active”, the IC50 [4] was “Not Active” and the Ki [4] was “Not Active”.

In the case of O=C(NCCN1CCOCC1)c1ccc(Cl)cc1 [MOCLOBEMIDE], the IC50 ([1]; sf9) is reported as “Not Active”, the IC50 [2] is reported as “Not Active” and the IC50 (Cannabinoid receptor 1) is reported as “Not Active”. The IC50 [3] was “Not Active”, the IC50 [4] was “Not Active” and the Ki [4] was “Not Active”.

In the case of CARBOXYMETHYLCELLULOSE, the IC50 ([1]; sf9) is reported as “Not Active”, the Ki ([1]; sf9) is reported as “Not Active” and the IC50 [2] is reported as “Not Active”. The Ki [2] was “Not Active”, the IC50 (Cannabinoid receptor 1) was “Not Active” and the Ki (Cannabinoid receptor 1) was “Not Active”. For the same compound, the IC50 [3] was “Not Active”, the Ki [3] was “Not Active” and the IC50 [4] was “Not Active”. For the same compound, the Ki [4] was “Not Active”.

For COc1ccccc1OCCNCC(O)COc1cccc2[nH]c3ccccc3c12 (configuration not stated) [CARVEDILOL], the IC50 ([1]; read-out: IC50) was 90 nM, the Ki ([1]; read-out: Ki) was 13 nM and the IC50 ([2]; read-out: IC50) was 1090 nM. For the same compound, the Ki ([2]; read-out: Ki) was 181 nM, the IC50 (Cannabinoid receptor 1) was “Not Active” and the IC50 [3] was “Not Active”. The IC50 [4] was “Not Active” and the Ki [4] was “Not Active”.

In the case of NC(N)=Nc1nc(CSCCC(N)=NS(N)(=O)=O)cs1 [FAMOTIDINE], the IC50 ([1]; sf9) is reported as “Not Active”, the IC50 [2] is reported as “Not Active” and the IC50 (Cannabinoid receptor 1) is reported as “Not Active”. For the same compound, the IC50 [3] was “Not Active”, the IC50 [4] was “Not Active” and the Ki [4] was “Not Active”.

In the case of COc1ccc(C[C@H](N)C(=O)N[C@H]2[C@@H](O)[C@H](n3cnc4c(N(C)C)ncnc43)O[C@@H]2CO)cc1 [PUROMYCIN], the IC50 ([1]; sf9) is reported as “Not Active”, the IC50 [2] is reported as “Not Active” and the IC50 (Cannabinoid receptor 1) is reported as “Not Active”. For the same compound, the IC50 [3] was “Not Active”, the IC50 [4] was “Not Active” and the Ki [4] was “Not Active”.
